# Results taken from publication PMC9861623, “New Ferulic Acid and Amino Acid Derivatives with Increased Cosmeceutical and Pharmaceutical Potential” (Pharmaceutics, 2022).
# “And” between values parts separate entries of the source, which are not always exact repeats. Equal values may be shown once.
# Columns and labels:
# [1] = DPPH radical scavenging assay of the compounds
# Protocol: (§1) To determine the antioxidant capacity of ferulic acid and its derivatives the DPPH method was used. The analyses were performed using the Hitachi UV-Vis Spectrophotometer U-5100 at the wavelength λ = 517 nm. Trolox (6-hydroxy-2,5,7,8-tetramethylchroman-2-carboxylic acid) was used as a reference substance. The antioxidant activity was expressed as %RSA and mmol Trolox dm^−3. […]. Blank samples without antioxidant were prepared in the same way. The tubes were wrapped in aluminum foil and were sealed with a stopper and then incubated for 10 min at room temperature. After this time, spectrophotometric measurements were carried out in triplicate. For determination of antioxidant activity of the acceptor fluid after 24 h of permeation and solutions obtained by extraction of the skin obtained after penetration study, 0.15 mL samples of each solutions were separately added to 2.85 mL of DPPH solution and spectrophotometric measurements were performed. The antioxidant activity was expressed as mmol Trolox·dm^−3.
# [2] = Skin permeation in Franz diffusion cells; format: in vitro ADME, pig; settings: 24 h, 10 mg as FA applied
# Protocol: In the experiment, abdominal porcine skin coming from the local slaughterhouse was used. Pig skin was chosen because of its similar permeability to human skin [34, 35]. The fresh abdominal porcine skin was washed several times in PBS buffer pH 7.4. The skin of 0.5 mm in thickness was dermatomed and divided into 2 cm × 2 cm pieces. The skin samples were wrapped in aluminum foil and stored at −20 °C until use, not longer than 3 months. According to Badran et al., this storage time at this temperature is safe to keep skin barrier properties. Immediately before the experiment, the skin samples were slowly thawed at room temperature for 30 min and then were hydrated by PBS pH 7.4 [37, 38, 39, 40]. Such prepared skin was mounted on donor chamber. Only the undamaged skin pieces with an even thickness were chosen for experiments. The integrity of the skin was checked by impedance measurement using an LCRmeter4080 (Conrad Electronic, Hirschau, Germany), operated in parallel mode at an alternating frequency of 120 Hz (error at kΩ values < 0.5%). The tips of measuring probes were immersed in the donor and acceptor chamber containing PBS (pH 7.4), as described previously. Only skin samples of impedance > 3 kΩ were applied as such impedance is similar to the electrical resistance of human skin [42].
# The concentration of FA and its derivatives in the acceptor fluid and in the fluid obtained by skin extraction after permeation experiment was assessed using liquid chromatography system (Knauer, Berlin, Germany) consisting of a model 2600 UV detector, Smartline model 1050 pump and Smartline model 3950 autosampler. HPLC was controlled by ClarityChrom 2009 software. The detector was operated at 280 nm. The separations were performed on 125 mm × 4 mm ID chromatographic column filled with Hyperisil ODS (C18), particle size 5 µm, in isocratic mode. The mobile phase consisted of acetonitrile, 1% acetic acid, and MeOH (47/47/6 v/v/v) and was pumped at flow rate of 1 mL min^−1. The column temperature was set at 25 °C, and the injection volume was 20 µL.
# The permeation experiments were performed using Franz diffusion cells (Phoenix DB-6, ABL&E-JASCO, Wien, Austria). The diffusion was 1 cm^2. The volume of the acceptor chamber was 8 mL. This chamber was filled with PBS solution (pH 7.4). During experiment, a constant temperature of 37.0 ± 0.5 °C was maintained in each diffusion unit. The acceptor chamber content was stirred with a magnetic stirring bar at the same speed for all cells. The prepared pig skin was mounted on each donor chamber. As previously mentioned, only undamaged skin pieces with an even thickness were chosen for experiments. Thereafter, the hydrogel or emulsion vehicle/preparation in 1 g portion was put on the skin in donor cells. For comparison, 1 mL ethanolic solution containing either FA or its derivatives was applied to another donor chamber. The amount of the FA and its derivatives applied on the skin expressed as the mass of ferulic acid was 0.01 g and was the same for each carrier. The penetration experiments were carried out for 24 h. The samples were collected after 1 h, 2 h, 3 h, 4 h, 5 h, 6 h, 8 h, and 24 h. Aliquots of the acceptor fluid (0.5 mL) were withdrawn and to each acceptor chamber the same volume of fresh PBS solution was added. The FA and its derivatives’ concentrations in the acceptor fluid were measured by HPLC method (Section 2.6.2). The cumulative mass (µg·cm^−2) and penetration rate (µg·cm^−2·h^−1) were calculated. The acceptor fluid collected after 24 h of permeation was also measured for antioxidant activity and total polyphenol content (as described in Section 2.5.1 and Section 2.5.2).
# [3] = DPPH antioxidant activity of solution obtained after skin extraction; set-up: species or system pig; settings: after 24 h penetration, listed as FA
# Protocol: as §1
# The accumulation of the FA and its derivatives in the skin after 24 h permeation process through the skin were determined using a modification of the methods described by Janus et al. and Taokaew et al.. After 24 h of permeation experiment, the skin samples were removed from the Franz diffusion cell, washed three times with 0.5% sodium lauryl sulfate solution and dried at room temperature. Next, after cutting out the diffusion area of each skin sample, the samples were immersed in 2 mL of absolute ethanol and continuously stirred at 300 rpm at room temperature for 24 h. The samples were then centrifuged, and clear solutions were collected and analyzed by HPLC method for the determination of FA and its derivatives. The accumulation of the active substance in the skin was calculated by dividing the amount of the drug remaining in the skin by a mass of skin sample and was expressed in mass active substance per mass of the skin (µg g^−1). For solution obtained after skin extraction, the antioxidant activity and total polyphenol content were also determined (as described in Section 2.5.1 and Section 2.5.2).
# NIH-3T3 cells = tested on: NIH-3T3 cells; set-up: method as in PMID 29077251; settings: NIH-3T3, 500 μg mL^−1; cited from earlier work
# [4] = molar ratio antioxidant:DPPH 0.1, 10 min, listed as FA
# [5] = molar ratio antioxidant:DPPH 1.0, 10 min
# [6] = molar ratio antioxidant:DPPH 2.0, 10 min, listed as FA
smiles,measurement,setting,value
COc1cc(/C=C/C(=O)O)ccc1O [Ferulic acid],Antioxidant activity %RSA,[1]; [4],12.4 ± 0.001 %RSA and 12.4 ± 0.001 a %RSA
same,"Antioxidant activity, Trolox equivalents",[1]; [4],0.049 ± 0.001 mmol Trolox dm^−3 and 0.049 ± 0.001 a mmol Trolox dm^−3
same,Antioxidant activity %RSA,[1]; [5],73.2 ± 0.001 b %RSA
same,"Antioxidant activity, Trolox equivalents",[1]; [5],0.635 ± 0.001 b mmol Trolox dm^−3
same,Antioxidant activity %RSA,[1]; [6],86.5 ± 0.001 %RSA and 86.5 ± 0.001 b %RSA
same,"Antioxidant activity, Trolox equivalents",[1]; [6],0.763 ± 0.001 mmol Trolox dm^−3 and 0.763 ± 0.001 b mmol Trolox dm^−3
same,Cumulative Permeation Mass,[2]; from emulsion,104.93 ± 7.63 a µg FA·cm^−2
same,Cumulative Permeation Mass,[2]; from hydrogel,289.36 ± 38.50 a µg FA·cm^−2
same,Cumulative Permeation Mass,[2]; from solution in 70% (v/v) ethanol,368.57 ± 2.94 a µg FA·cm^−2
same,DPPH antioxidant activity of the solution obtained after skin extraction,[3]; emulsion,0.300 ± 0.024 b mmol Trolox dm^−3
same,DPPH antioxidant activity of the solution obtained after skin extraction,[3]; ethanol solution,0.394 ± 0.004 mmol Trolox dm^−3 and 0.394 ± 0.004 b mmol Trolox dm^−3
same,DPPH antioxidant activity of the solution obtained after skin extraction,[3]; hydrogel,0.381 ± 0.011 mmol Trolox dm^−3 and 0.381 ± 0.011 b mmol Trolox dm^−3
same,toxicity on normal cells,NIH-3T3 cells,did not cause any toxicity
